# Numbers after ± are expanded uncertainties.
# Legend:
# [1] = 308.15 K, Drop volume
# [2] = xn = mol fraction of the nth substance listed; conditions: 308.15 K, Drop volume
compound,measurement,setting,value
COC(=O)OC [dimethyl carbonate],surface tension liquid-gas,[1],26.55 ± 0.23 mN/m
CCCCCCCCCC [decane],surface tension liquid-gas,[1],22.1 ± 0.21 mN/m
CCOC(=O)OCC [diethyl carbonate],surface tension liquid-gas,[1],24.02 ± 0.19 mN/m
"Cc1ccc(C)cc1 [1,4-dimethylbenzene] + COC(=O)OC",surface tension liquid-gas,[2]; x2 = 0.0503,26.19 ± 0.27 mN/m
same,surface tension liquid-gas,[2]; x2 = 0.1937,25.97 ± 0.27 mN/m
same,surface tension liquid-gas,[2]; x2 = 0.2988,25.84 ± 0.27 mN/m
same,surface tension liquid-gas,[2]; x2 = 0.4013,25.76 ± 0.27 mN/m
same,surface tension liquid-gas,[2]; x2 = 0.5016,25.7 ± 0.27 mN/m
same,surface tension liquid-gas,[2]; x2 = 0.6032,25.67 ± 0.27 mN/m
same,surface tension liquid-gas,[2]; x2 = 0.7029,25.67 ± 0.27 mN/m
same,surface tension liquid-gas,[2]; x2 = 0.7964,25.74 ± 0.27 mN/m
same,surface tension liquid-gas,[2]; x2 = 0.8945,25.98 ± 0.27 mN/m
same,surface tension liquid-gas,[2]; x2 = 0.9442,26.13 ± 0.27 mN/m
"Cc1ccc(C)cc1 [1,4-dimethylbenzene]",surface tension liquid-gas,[1],26.29 ± 0.23 mN/m
"Cc1ccc(C)cc1 [1,4-dimethylbenzene] + CCCCCCCC",surface tension liquid-gas,[2]; x1 = 0.0488,20.02 ± 0.24 mN/m
same,surface tension liquid-gas,[2]; x1 = 0.109,20.25 ± 0.24 mN/m
same,surface tension liquid-gas,[2]; x1 = 0.1953,20.52 ± 0.24 mN/m
same,surface tension liquid-gas,[2]; x1 = 0.2973,20.96 ± 0.24 mN/m
same,surface tension liquid-gas,[2]; x1 = 0.3959,21.41 ± 0.25 mN/m
same,surface tension liquid-gas,[2]; x1 = 0.4978,21.91 ± 0.25 mN/m
same,surface tension liquid-gas,[2]; x1 = 0.5503,22.2 ± 0.25 mN/m
same,surface tension liquid-gas,[2]; x1 = 0.5935,22.46 ± 0.25 mN/m
same,surface tension liquid-gas,[2]; x1 = 0.6966,23.11 ± 0.26 mN/m
same,surface tension liquid-gas,[2]; x1 = 0.8004,23.93 ± 0.26 mN/m
same,surface tension liquid-gas,[2]; x1 = 0.9017,24.92 ± 0.27 mN/m
same,surface tension liquid-gas,[2]; x1 = 0.9504,25.5 ± 0.27 mN/m
CCCCCCCC [octane],surface tension liquid-gas,[1],19.9 ± 0.2 mN/m
CCCCCCCCCC [decane] + COC(=O)OC,surface tension liquid-gas,[2]; x2 = 0.0512,21.95 ± 0.26 mN/m
same,surface tension liquid-gas,[2]; x2 = 0.09,21.92 ± 0.26 mN/m
same,surface tension liquid-gas,[2]; x2 = 0.2006,21.9 ± 0.26 mN/m
same,surface tension liquid-gas,[2]; x2 = 0.2853,21.92 ± 0.26 mN/m
same,surface tension liquid-gas,[2]; x2 = 0.3971,21.97 ± 0.26 mN/m
same,surface tension liquid-gas,[2]; x2 = 0.4949,22.11 ± 0.26 mN/m
same,surface tension liquid-gas,[2]; x2 = 0.5987,22.01 ± 0.26 mN/m
same,surface tension liquid-gas,[2]; x2 = 0.6988,22.18 ± 0.26 mN/m
same,surface tension liquid-gas,[2]; x2 = 0.7971,22.54 ± 0.26 mN/m
same,surface tension liquid-gas,[2]; x2 = 0.8983,23.81 ± 0.27 mN/m
same,surface tension liquid-gas,[2]; x2 = 0.9505,24.82 ± 0.27 mN/m
CCOC(=O)OCC [diethyl carbonate] + CCCCCCCCCC,surface tension liquid-gas,[2]; x1 = 0.0512,21.9 ± 0.26 mN/m
same,surface tension liquid-gas,[2]; x1 = 0.0983,21.84 ± 0.26 mN/m
same,surface tension liquid-gas,[2]; x1 = 0.1997,21.75 ± 0.26 mN/m
same,surface tension liquid-gas,[2]; x1 = 0.2968,21.78 ± 0.25 mN/m
same,surface tension liquid-gas,[2]; x1 = 0.406,21.84 ± 0.25 mN/m
same,surface tension liquid-gas,[2]; x1 = 0.499,21.88 ± 0.25 mN/m
same,surface tension liquid-gas,[2]; x1 = 0.5621,21.96 ± 0.25 mN/m
same,surface tension liquid-gas,[2]; x1 = 0.5994,21.99 ± 0.25 mN/m
same,surface tension liquid-gas,[2]; x1 = 0.6966,22.19 ± 0.25 mN/m
same,surface tension liquid-gas,[2]; x1 = 0.7951,22.49 ± 0.25 mN/m
same,surface tension liquid-gas,[2]; x1 = 0.9018,23.1 ± 0.25 mN/m
same,surface tension liquid-gas,[2]; x1 = 0.9511,23.5 ± 0.25 mN/m
COC(=O)OC [dimethyl carbonate] + CCCCCCCC,surface tension liquid-gas,[2]; x1 = 0.0503,19.8 ± 0.24 mN/m
same,surface tension liquid-gas,[2]; x1 = 0.0976,19.78 ± 0.24 mN/m
same,surface tension liquid-gas,[2]; x1 = 0.196,19.85 ± 0.24 mN/m
same,surface tension liquid-gas,[2]; x1 = 0.2941,19.93 ± 0.24 mN/m
same,surface tension liquid-gas,[2]; x1 = 0.3969,20.09 ± 0.24 mN/m
same,surface tension liquid-gas,[2]; x1 = 0.495,20.25 ± 0.25 mN/m
same,surface tension liquid-gas,[2]; x1 = 0.5455,20.39 ± 0.25 mN/m
same,surface tension liquid-gas,[2]; x1 = 0.5971,20.54 ± 0.25 mN/m
same,surface tension liquid-gas,[2]; x1 = 0.6977,20.8 ± 0.25 mN/m
same,surface tension liquid-gas,[2]; x1 = 0.7977,21.47 ± 0.25 mN/m
same,surface tension liquid-gas,[2]; x1 = 0.8983,23.04 ± 0.26 mN/m
same,surface tension liquid-gas,[2]; x1 = 0.9492,24.53 ± 0.27 mN/m
"Cc1ccc(C)cc1 [1,4-dimethylbenzene] + CCCCCCCCCC",surface tension liquid-gas,[2]; x1 = 0.1047,22.18 ± 0.26 mN/m
same,surface tension liquid-gas,[2]; x1 = 0.2152,22.39 ± 0.26 mN/m
same,surface tension liquid-gas,[2]; x1 = 0.2977,22.57 ± 0.26 mN/m
same,surface tension liquid-gas,[2]; x1 = 0.3945,22.79 ± 0.26 mN/m
same,surface tension liquid-gas,[2]; x1 = 0.4993,23.11 ± 0.26 mN/m
same,surface tension liquid-gas,[2]; x1 = 0.549,23.28 ± 0.26 mN/m
same,surface tension liquid-gas,[2]; x1 = 0.5997,23.46 ± 0.27 mN/m
same,surface tension liquid-gas,[2]; x1 = 0.7004,23.88 ± 0.27 mN/m
same,surface tension liquid-gas,[2]; x1 = 0.8018,24.47 ± 0.27 mN/m
same,surface tension liquid-gas,[2]; x1 = 0.9004,25.2 ± 0.27 mN/m
same,surface tension liquid-gas,[2]; x1 = 0.9501,25.67 ± 0.27 mN/m
CCOC(=O)OCC [diethyl carbonate] + Cc1ccc(C)cc1,surface tension liquid-gas,[2]; x1 = 0.0995,25.98 ± 0.27 mN/m
same,surface tension liquid-gas,[2]; x1 = 0.2009,25.68 ± 0.27 mN/m
same,surface tension liquid-gas,[2]; x1 = 0.2985,25.42 ± 0.26 mN/m
same,surface tension liquid-gas,[2]; x1 = 0.3971,25.18 ± 0.26 mN/m
same,surface tension liquid-gas,[2]; x1 = 0.4956,24.94 ± 0.26 mN/m
same,surface tension liquid-gas,[2]; x1 = 0.5433,24.83 ± 0.26 mN/m
same,surface tension liquid-gas,[2]; x1 = 0.6007,24.7 ± 0.25 mN/m
same,surface tension liquid-gas,[2]; x1 = 0.6457,24.6 ± 0.25 mN/m
same,surface tension liquid-gas,[2]; x1 = 0.6995,24.49 ± 0.25 mN/m
same,surface tension liquid-gas,[2]; x1 = 0.7986,24.3 ± 0.25 mN/m
same,surface tension liquid-gas,[2]; x1 = 0.899,24.12 ± 0.25 mN/m
same,surface tension liquid-gas,[2]; x1 = 0.9497,24.06 ± 0.25 mN/m
CCOC(=O)OCC [diethyl carbonate] + CCCCCCCC,surface tension liquid-gas,[2]; x1 = 0.049,19.83 ± 0.24 mN/m
same,surface tension liquid-gas,[2]; x1 = 0.1008,19.89 ± 0.24 mN/m
same,surface tension liquid-gas,[2]; x1 = 0.2,19.91 ± 0.24 mN/m
same,surface tension liquid-gas,[2]; x1 = 0.2969,20.05 ± 0.24 mN/m
same,surface tension liquid-gas,[2]; x1 = 0.3972,20.26 ± 0.24 mN/m
same,surface tension liquid-gas,[2]; x1 = 0.4971,20.5 ± 0.24 mN/m
same,surface tension liquid-gas,[2]; x1 = 0.5495,20.63 ± 0.24 mN/m
same,surface tension liquid-gas,[2]; x1 = 0.5991,20.79 ± 0.24 mN/m
same,surface tension liquid-gas,[2]; x1 = 0.695,21.16 ± 0.24 mN/m
same,surface tension liquid-gas,[2]; x1 = 0.7938,21.7 ± 0.24 mN/m
same,surface tension liquid-gas,[2]; x1 = 0.8978,22.63 ± 0.24 mN/m
same,surface tension liquid-gas,[2]; x1 = 0.9504,23.33 ± 0.24 mN/m

# Reference: the NIST ThermoML archive (doi:10.1021/je301282p)
